Results as given in ChEMBL document CHEMBL1148886, “Synthesis and antibacterial activity of 3-keto-6-O-carbamoyl-11,12-cyclic thiocarbamate erythromycin A derivatives” (2007).
Converted amounts (≈) assume the structure as drawn.

Experiments:
Type in all cases: functional
[1] = system: Streptococcus pneumoniae; test: Antibacterial activity against erythromycin-susceptible Streptococcus pneumoniae OC9132 by broth microdilution method
[2] = system: Haemophilus influenzae; test: Antibacterial activity against Haemophilus influenzae OC4882 by broth microdilution method
[3] = system: Staphylococcus aureus; test: Antibacterial activity against erythromycin-susceptible Staphylococcus aureus OC4172 by broth microdilution method
[4] = system: Streptococcus pneumoniae; test: Antibacterial activity against erythromycin-resistant Streptococcus pneumoniae OC4051 containing erm(B) by broth microdilution method
[5] = system: Streptococcus pneumoniae; test: Antibacterial activity against erythromycin-resistant Streptococcus pneumoniae OC4438 containing mef(A) by broth microdilution method

Work on CC[C@H]1OC(=O)[C@H](C)C(=O)[C@H](C)[C@@H](O[C@@H]2O[C@H](C)C[C@H](N(C)C)[C@H]2O)[C@](C)(OC(N)=O)C[C@@H](C)C(=O)[C@H](C)[C@@H]2NC(=S)O[C@]12C yielded an MIC [1] of 0.25 µg/mL (≈ 0.38 µM), an MIC [2] of 8 µg/mL (≈ 12.2 µM) and an MIC [3] of 4 µg/mL (≈ 6.08 µM).

For CC[C@H]1OC(=O)[C@H](C)[C@@H](O[C@H]2C[C@@](C)(OC)[C@@H](O)[C@H](C)O2)[C@H](C)[C@@H](O[C@@H]2O[C@H](C)C[C@H](N(C)C)[C@H]2O)[C@](C)(O)C[C@@H](C)C(=O)[C@H](C)[C@@H](O)[C@]1(C)O [ERYTHROMYCIN], the MIC [4] was > 16 µg/mL, the MIC [1] was 0.06 µg/mL (≈ 0.0818 µM) and the MIC [5] was 4 µg/mL (≈ 5.45 µM). It also gave an MIC [2] of 8 µg/mL (≈ 10.9 µM) and an MIC [3] of 0.5 µg/mL (≈ 0.681 µM).

CC[C@H]1OC(=O)[C@H](C)C(=O)[C@H](C)[C@@H](O[C@@H]2O[C@H](C)C[C@H](N(C)C)[C@H]2O)[C@](C)(OC)C[C@@H](C)C(=O)[C@H](C)[C@H]2N(CCCCn3cnc(-c4cccnc4)c3)C(=O)O[C@]12C [TELITHROMYCIN] was tested, and the MIC [4] was 0.06 µg/mL (≈ 0.0739 µM), the MIC [1] was 0.03 µg/mL (≈ 0.0369 µM) and the MIC [5] was 0.25 µg/mL (≈ 0.308 µM). The MIC [2] was 2 µg/mL (≈ 2.46 µM) and the MIC [3] was 0.25 µg/mL (≈ 0.308 µM).
